Laboratory results taken from ChEMBL document CHEMBL4364346, “Structure optimization of a new class of PPARγ antagonists” (Bioorg Med Chem, 2019).
pIC50: −log10 of the molar value. Active and inactive are the calls of the source. The rule behind the calls is not given here.

Legend:
[1] = molecular target: T1, Peroxisome proliferator-activated receptor alpha (Homo sapiens) (UniProt Q07869); assay: Antagonist activity at recombinant human pFA-CMV fused PPARalpha LBD transfected in HEK293T cells assessed as reduction in GW7647-induced PPARalpha activation at 1 uM incubated for 12 to 14 hrs by dual glo luciferase reporter gene assay; type: cell-based
T1 sequence (whole entry): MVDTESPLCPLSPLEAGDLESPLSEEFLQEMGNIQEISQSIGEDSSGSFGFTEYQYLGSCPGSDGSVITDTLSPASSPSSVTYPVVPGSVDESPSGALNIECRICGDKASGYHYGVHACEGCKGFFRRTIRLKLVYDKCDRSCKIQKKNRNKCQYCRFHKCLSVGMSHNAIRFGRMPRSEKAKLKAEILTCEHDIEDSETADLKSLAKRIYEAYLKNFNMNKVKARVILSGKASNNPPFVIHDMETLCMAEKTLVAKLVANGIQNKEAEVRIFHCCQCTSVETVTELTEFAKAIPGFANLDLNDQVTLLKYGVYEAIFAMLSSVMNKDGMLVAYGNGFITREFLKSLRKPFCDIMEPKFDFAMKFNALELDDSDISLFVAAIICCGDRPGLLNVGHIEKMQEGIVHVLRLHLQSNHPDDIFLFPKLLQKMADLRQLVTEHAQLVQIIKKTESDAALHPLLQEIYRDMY

[2] = molecular target: T2, Retinoic acid receptor alpha (Homo sapiens) (UniProt P10276); assay: Antagonist activity at recombinant human pFA-CMV fused RARalpha LBD transfected in HEK293T cells assessed as reduction in tretinoin-induced RARalpha activation at 1 uM incubated for 12 to 14 hrs by dual glo luciferase reporter gene assay; type: cell-based
T2 sequence (whole entry): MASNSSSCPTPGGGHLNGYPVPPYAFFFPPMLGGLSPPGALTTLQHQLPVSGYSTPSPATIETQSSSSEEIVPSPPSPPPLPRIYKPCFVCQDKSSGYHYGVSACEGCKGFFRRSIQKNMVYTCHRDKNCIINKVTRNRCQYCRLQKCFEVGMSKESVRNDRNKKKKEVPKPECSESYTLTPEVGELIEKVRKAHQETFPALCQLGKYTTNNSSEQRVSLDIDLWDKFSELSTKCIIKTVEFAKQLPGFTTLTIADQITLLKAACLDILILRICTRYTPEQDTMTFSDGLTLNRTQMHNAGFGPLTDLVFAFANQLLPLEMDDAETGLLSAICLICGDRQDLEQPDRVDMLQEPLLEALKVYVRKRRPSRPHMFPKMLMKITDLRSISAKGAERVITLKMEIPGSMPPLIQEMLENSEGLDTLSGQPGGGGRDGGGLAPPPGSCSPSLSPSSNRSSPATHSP

[3] = molecular target: T3, Vitamin D3 receptor (Homo sapiens) (UniProt P11473); assay: Antagonist activity at recombinant human pFA-CMV fused VDR LBD transfected in HEK293T cells assessed as calcitrol-induced VDR activation at 1 uM incubated for 12 to 14 hrs by dual glo luciferase reporter gene assay; type: cell-based
T3 sequence (whole entry): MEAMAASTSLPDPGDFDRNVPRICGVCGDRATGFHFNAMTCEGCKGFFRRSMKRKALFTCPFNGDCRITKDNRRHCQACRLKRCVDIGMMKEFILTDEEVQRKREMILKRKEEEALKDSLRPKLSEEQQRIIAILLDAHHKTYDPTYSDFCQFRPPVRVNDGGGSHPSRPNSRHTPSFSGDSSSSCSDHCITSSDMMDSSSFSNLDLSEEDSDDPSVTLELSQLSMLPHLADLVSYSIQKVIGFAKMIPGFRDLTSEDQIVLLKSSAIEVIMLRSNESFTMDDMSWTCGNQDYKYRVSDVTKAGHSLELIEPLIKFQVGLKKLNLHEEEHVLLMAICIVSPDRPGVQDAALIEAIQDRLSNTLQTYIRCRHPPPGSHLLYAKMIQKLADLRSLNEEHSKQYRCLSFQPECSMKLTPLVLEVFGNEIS

[4] = Cmax in Swiss CD1 mouse at 10 mg/kg, ip measured upto 7 hrs by LC-MS analysis; type: ADME, organism-based; design: dose 10 mg/kg, route intraperitoneal; conditions: in vivo
[5] = molecular target: T4, Bile acid receptor (Homo sapiens) (UniProt Q96RI1); assay: Antagonist activity at recombinant human pFA-CMV fused FXR LBD transfected in HEK293T cells assessed as reduction in GW4064-induced FXR activation at 1 uM incubated for 12 to 14 hrs by dual glo luciferase reporter gene assay; type: cell-based
T4 sequence (whole entry): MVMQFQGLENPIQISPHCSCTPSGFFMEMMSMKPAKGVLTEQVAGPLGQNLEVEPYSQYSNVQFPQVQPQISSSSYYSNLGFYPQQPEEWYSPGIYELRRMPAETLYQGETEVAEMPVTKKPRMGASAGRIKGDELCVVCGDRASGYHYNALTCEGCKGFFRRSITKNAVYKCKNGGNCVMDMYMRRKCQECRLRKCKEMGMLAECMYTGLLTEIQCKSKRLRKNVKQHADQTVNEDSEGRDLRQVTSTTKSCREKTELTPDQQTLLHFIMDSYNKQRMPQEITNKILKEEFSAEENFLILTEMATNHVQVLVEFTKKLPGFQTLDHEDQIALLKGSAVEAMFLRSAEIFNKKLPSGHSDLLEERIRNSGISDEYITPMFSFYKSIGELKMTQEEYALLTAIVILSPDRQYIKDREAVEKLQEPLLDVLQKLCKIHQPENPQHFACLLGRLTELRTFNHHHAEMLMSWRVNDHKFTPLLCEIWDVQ

[6] = Tmax in Swiss CD1 mouse at 10 mg/kg, ip measured upto 7 hrs by LC-MS analysis; type: ADME, organism-based; conditions: in vivo
[7] = molecular target: T5, Peroxisome proliferator-activated receptor gamma (Homo sapiens, UniProt P37231); assay: Antagonist actvity in sGFP-tagged PPARgamma LBD (unknown origin) assessed as inhibition of rosiglitazone-induced PPARgamma activation incubated for 1 hr in presence of CBP-1 cofactor peptide by HTRF based cofactor recruitment assay
T5 sequence (P37231 whole entry): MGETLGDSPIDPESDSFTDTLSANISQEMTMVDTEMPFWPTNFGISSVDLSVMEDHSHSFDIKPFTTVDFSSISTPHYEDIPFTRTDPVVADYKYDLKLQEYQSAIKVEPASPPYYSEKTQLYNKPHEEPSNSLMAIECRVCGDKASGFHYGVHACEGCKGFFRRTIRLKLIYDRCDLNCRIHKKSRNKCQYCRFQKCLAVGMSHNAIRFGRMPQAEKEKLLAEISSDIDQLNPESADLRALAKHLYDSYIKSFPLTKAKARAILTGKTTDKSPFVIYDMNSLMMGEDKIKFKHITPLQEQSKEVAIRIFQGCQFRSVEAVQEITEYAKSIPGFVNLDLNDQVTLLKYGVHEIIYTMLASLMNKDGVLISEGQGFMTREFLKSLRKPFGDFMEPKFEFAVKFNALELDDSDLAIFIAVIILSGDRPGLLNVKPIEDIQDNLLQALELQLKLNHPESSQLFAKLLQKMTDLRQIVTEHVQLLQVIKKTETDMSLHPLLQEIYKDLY

Activity [1]	Activity [2]	Activity [3]	Cmax [4] [nM]	Activity [5]	Tmax [6] [h]	pIC50 [7]	SMILES
inactive	inactive	inactive	380	inactive	2		CCC/C(=C\c1cc(OCc2ccc3nc(C(F)(F)F)cc(OC)c3c2)ccc1OCC1CCN(C)CC1)C(=O)O
inactive	inactive	inactive	446	inactive	0.25	5.19	CCC/C(=C\c1cc(OCc2ccc3nc(C(F)(F)F)cc(OC)c3c2)ccc1OCCN1CCN(C)CC1)C(=O)O
